Legend:
[1] = target: T1, Prostaglandin G/H synthase 2 (Homo sapiens, UniProt P35354); assay: Inhibition of recombinant human COX2 assessed as production of PGF2-alpha preincubated with compound followed by the addition of 5 uM arachidonic acid as substrate by enzyme immunoassay
T1 sequence (P35354 whole entry): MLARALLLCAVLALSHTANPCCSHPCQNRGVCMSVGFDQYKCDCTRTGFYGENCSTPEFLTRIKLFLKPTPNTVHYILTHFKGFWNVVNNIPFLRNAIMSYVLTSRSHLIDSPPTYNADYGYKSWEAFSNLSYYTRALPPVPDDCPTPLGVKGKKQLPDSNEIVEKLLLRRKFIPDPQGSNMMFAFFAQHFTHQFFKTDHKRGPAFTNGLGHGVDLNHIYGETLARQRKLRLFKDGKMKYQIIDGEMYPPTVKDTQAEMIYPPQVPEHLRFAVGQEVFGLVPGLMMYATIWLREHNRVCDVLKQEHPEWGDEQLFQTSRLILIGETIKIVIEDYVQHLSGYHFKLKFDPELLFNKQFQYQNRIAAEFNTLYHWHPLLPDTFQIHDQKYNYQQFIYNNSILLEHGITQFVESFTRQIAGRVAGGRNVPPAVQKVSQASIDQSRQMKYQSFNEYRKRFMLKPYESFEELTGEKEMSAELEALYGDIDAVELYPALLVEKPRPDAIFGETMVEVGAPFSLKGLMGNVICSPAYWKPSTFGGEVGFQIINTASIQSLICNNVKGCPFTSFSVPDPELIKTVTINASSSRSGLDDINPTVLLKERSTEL

[2] = target: T2, Prostaglandin G/H synthase 1 (Ovis aries, UniProt P05979); assay: Inhibition of ovine COX1 assessed as production of PGF2-alpha preincubated with compound followed by the addition of 5 uM arachidonic acid as substrate by enzyme immunoassay
T2 sequence (P05979 whole entry): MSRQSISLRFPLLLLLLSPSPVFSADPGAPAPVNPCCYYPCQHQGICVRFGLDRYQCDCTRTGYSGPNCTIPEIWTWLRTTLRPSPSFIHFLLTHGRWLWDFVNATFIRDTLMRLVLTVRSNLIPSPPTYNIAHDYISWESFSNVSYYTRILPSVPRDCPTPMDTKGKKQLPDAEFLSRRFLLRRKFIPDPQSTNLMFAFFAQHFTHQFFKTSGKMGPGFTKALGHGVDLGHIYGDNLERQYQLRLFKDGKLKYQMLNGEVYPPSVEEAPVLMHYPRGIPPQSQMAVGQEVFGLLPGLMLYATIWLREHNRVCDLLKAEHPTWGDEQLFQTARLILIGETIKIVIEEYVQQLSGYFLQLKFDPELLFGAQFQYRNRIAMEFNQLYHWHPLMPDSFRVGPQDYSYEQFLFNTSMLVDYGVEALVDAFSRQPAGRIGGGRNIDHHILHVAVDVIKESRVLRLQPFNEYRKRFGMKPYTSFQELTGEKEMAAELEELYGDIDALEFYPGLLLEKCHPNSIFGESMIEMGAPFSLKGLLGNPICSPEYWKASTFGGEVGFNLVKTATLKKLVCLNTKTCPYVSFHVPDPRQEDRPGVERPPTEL

[3] = target: T3, Fatty-acid amide hydrolase 1 (Rattus norvegicus, UniProt P97612); assay: Inhibition of FAAH in Sprague-Dawley rat brain homogenates preincubated for 10 mins followed by addition of substrate measured after 30 mins by liquid scintillation counting; assay type: tissue-based
T3 sequence (P97612 whole entry): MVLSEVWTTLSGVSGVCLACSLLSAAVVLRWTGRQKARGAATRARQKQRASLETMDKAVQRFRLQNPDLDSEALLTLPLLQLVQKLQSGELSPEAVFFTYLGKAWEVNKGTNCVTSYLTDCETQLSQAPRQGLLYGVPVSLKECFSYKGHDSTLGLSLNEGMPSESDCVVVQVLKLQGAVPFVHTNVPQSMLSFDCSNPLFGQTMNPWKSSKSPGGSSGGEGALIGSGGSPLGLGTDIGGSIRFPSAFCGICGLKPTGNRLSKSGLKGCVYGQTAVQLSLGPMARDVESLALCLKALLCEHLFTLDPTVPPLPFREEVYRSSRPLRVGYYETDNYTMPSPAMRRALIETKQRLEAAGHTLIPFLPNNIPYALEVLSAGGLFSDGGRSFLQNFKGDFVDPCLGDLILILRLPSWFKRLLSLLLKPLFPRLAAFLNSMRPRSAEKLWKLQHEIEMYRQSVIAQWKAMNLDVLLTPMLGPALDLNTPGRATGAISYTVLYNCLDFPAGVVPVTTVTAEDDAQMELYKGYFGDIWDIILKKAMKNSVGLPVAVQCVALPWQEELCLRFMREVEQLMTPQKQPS

**Q.** How did the IC50 [1] turn out when `CC(C(=O)O)c1ccc(-c2cccc(OC(=O)NCC3CCCCC3)c2)c(F)c1` (racemic) was run?
**A.** > 100000 nM

**Q.** `CC(C(=O)O)c1ccc(-c2cccc(OC(=O)NC3CC3)c2)c(F)c1` (racemic) was tested. Which IC50 [2] did it give?
**A.** 5400 nM

**Q.** And the IC50 [3]?
**A.** > 100000 nM

**Q.** What about the IC50 [1] of the same molecule?
**A.** 74300 nM

**Q.** How did the IC50 [3] turn out when `CC(C(=O)O)c1ccc(-c2ccccc2)c(F)c1` (stereo unspecified) [FLURBIPROFEN] was run?
**A.** > 100000 nM

**Q.** With `CCCCCCNC(=O)Oc1cccc(-c2ccc(C(C)C(=O)O)cc2Cl)c1` (racemic) as the molecule, how does the IC50 [2] read?
**A.** 9 nM

**Q.** What about the IC50 [3] of the same molecule?
**A.** 23 nM

**Q.** What about the IC50 [1] of the same molecule?
**A.** 730 nM

**Q.** `CCCCCCNC(=O)Oc1ccccc1-c1ccc(C(C)C(=O)O)cc1F` (racemic) was tested. Which IC50 [1] did it give?
**A.** > 100000 nM

**Q.** Which IC50 [2] does the source give for `CCCCCCNC(=O)Oc1cccc(-c2ccc(C(C)C(=O)O)cc2)c1` (racemic) here?
**A.** 54 nM

**Q.** What about the IC50 [3] of the same molecule?
**A.** 3 nM

**Q.** And the IC50 [1]?
**A.** 690 nM

**Q.** `CCCCCCNC(=O)Oc1cccc(-c2ccc(C(C)C(=O)OC)cc2F)c1` (racemic) was tested. Which IC50 [2] did it give?
**A.** > 100000 nM

**Q.** What about the IC50 [3] of the same molecule?
**A.** 52 nM

**Q.** And the IC50 [1]?
**A.** > 100000 nM

**Q.** For `CC(C(=O)O)c1ccc(-c2cccc(OC(=O)NCCCCc3ccccc3)c2)c(F)c1` (racemic), which IC50 [1] is on record?
**A.** > 100000 nM

**Q.** For `CCCCCCNC(=O)Nc1cccc(-c2ccc(C(C)C(=O)O)cc2F)c1` (racemic), which IC50 [2] is on record?
**A.** 14 nM

**Q.** What about the IC50 [3] of the same molecule?
**A.** 88400 nM

**Q.** What about the IC50 [1] of the same molecule?
**A.** 560 nM

**Q.** `CC(C(=O)O)c1ccc(-c2cccc(OC(=O)NC3CCCCC3)c2)c(F)c1` (racemic) was tested. Which IC50 [1] did it give?
**A.** > 100000 nM

**Q.** What does the source list for `CCCCCCNC(=O)Oc1cccc(-c2ccc(C(C)C(=O)O)cc2[N+](=O)[O-])c1` (racemic)?
**A.** IC50 [2]: 130 nM; IC50 [3]: 9 nM; IC50 [1]: 930 nM

**Q.** What does the source list for `CC(C)CNC(=O)Oc1cccc(-c2ccc(C(C)C(=O)O)cc2F)c1` (racemic)?
**A.** IC50 [3]: 4100 nM; IC50 [1]: > 100000 nM

**Q.** Which results are given for `CCCCCCNC(=O)Oc1cccc(-c2ccc(C)cc2F)c1`?
**A.** IC50 [2]: > 100000 nM; IC50 [3]: 26 nM; IC50 [1]: > 100000 nM

**Q.** With `CCCCNC(=O)Oc1cccc(-c2ccc(C(C)C(=O)O)cc2F)c1` (racemic) as the molecule, how does the IC50 [1] read?
**A.** > 100000 nM

**Q.** For `CCCCCCNC(=O)Oc1cccc(-c2ccc(C(C)C(=O)O)cc2N)c1` (racemic), which IC50 [2] is on record?
**A.** 220 nM

**Q.** What about the IC50 [3] of the same molecule?
**A.** 49 nM

**Q.** And the IC50 [1]?
**A.** 12100 nM

**Q.** `CCCNC(=O)Oc1cccc(-c2ccc(C(C)C(=O)O)cc2F)c1` (racemic) was tested. Which IC50 [2] did it give?
**A.** 1650 nM

**Q.** What about the IC50 [3] of the same molecule?
**A.** > 100000 nM

**Q.** What about the IC50 [1] of the same molecule?
**A.** > 100000 nM

**Q.** `CC(C(=O)O)c1ccc(-c2cccc(OC(=O)NCCc3ccccc3)c2)c(F)c1` (racemic) was tested. Which IC50 [1] did it give?
**A.** > 100000 nM

**Q.** `CCCCCCNC(=O)Oc1cccc(-c2ccc(C(C)CO)cc2F)c1` (racemic) was tested. Which IC50 [3] did it give?
**A.** 3 nM

**Q.** What about the IC50 [1] of the same molecule?
**A.** > 100000 nM

**Q.** For `CCCCCCNC(=O)Oc1ccc(-c2ccc(C(C)C(=O)O)cc2F)cc1` (racemic), which IC50 [2] is on record?
**A.** > 100000 nM

**Q.** What about the IC50 [3] of the same molecule?
**A.** 68 nM

**Q.** What about the IC50 [1] of the same molecule?
**A.** > 100000 nM

**Q.** Which IC50 [3] does the source give for `CCCCCCCCNC(=O)Oc1cccc(-c2ccc(C(C)C(=O)O)cc2F)c1` (racemic) here?
**A.** 3 nM

**Q.** With `CCCCCCNC(=O)Oc1cccc(-c2ccc([C@@H](C)C(=O)O)cc2F)c1` as the molecule, how does the IC50 [2] read?
**A.** 4000 nM

**Q.** What does the source list for `NC(=O)c1cccc(-c2cccc(OC(=O)NC3CCCCC3)c2)c1` [URB-597]?
**A.** IC50 [2]: > 100000 nM; IC50 [1]: > 100000 nM

**Q.** For `CCNC(=O)Oc1cccc(-c2ccc(C(C)C(=O)O)cc2F)c1` (racemic), which IC50 [2] is on record?
**A.** 2100 nM

**Q.** What about the IC50 [3] of the same molecule?
**A.** > 100000 nM

**Q.** What about the IC50 [1] of the same molecule?
**A.** > 100000 nM

**Q.** For `CC(C(=O)O)c1ccc(-c2cccc(OC(=O)NC3CCCC3)c2)c(F)c1` (racemic), which IC50 [1] is on record?
**A.** > 100000 nM

**Q.** Which IC50 [2] does the source give for `CC(C(=O)O)c1ccc(-c2cccc(OC(=O)Nc3ccccc3)c2)c(F)c1` (racemic) here?
**A.** 270 nM

**Q.** What about the IC50 [3] of the same molecule?
**A.** 41200 nM

**Q.** What about the IC50 [1] of the same molecule?
**A.** 2700 nM

**Q.** `CC(C(=O)O)c1ccc(-c2cccc(OC(=O)NC3CCC3)c2)c(F)c1` (racemic) was tested. Which IC50 [2] did it give?
**A.** 720 nM

**Q.** What about the IC50 [3] of the same molecule?
**A.** 48700 nM

**Q.** What about the IC50 [1] of the same molecule?
**A.** > 100000 nM

**Q.** For `CCCCCCNC(=O)Oc1cccc(-c2ccc(C(C)C(=O)O)cc2O)c1` (racemic), which IC50 [2] is on record?
**A.** 650 nM

**Q.** What about the IC50 [3] of the same molecule?
**A.** 35 nM

**Q.** What about the IC50 [1] of the same molecule?
**A.** 13000 nM

**Q.** Which results are given for `CCCCCCNC(=O)Oc1cccc(-c2ccc(C(C)C(=O)O)cc2C)c1` (racemic)?
**A.** IC50 [2]: 11 nM; IC50 [3]: 10 nM; IC50 [1]: 1400 nM

**Q.** How did the IC50 [1] turn out when `CC(C(=O)O)c1ccc(-c2cccc(OC(=O)NCc3ccccc3)c2)c(F)c1` (racemic) was run?
**A.** > 100000 nM

**Q.** With `CCCCCCNC(=O)Oc1cccc(-c2ccc(C(=O)O)cc2F)c1` as the molecule, how does the IC50 [2] read?
**A.** > 100000 nM

**Q.** And the IC50 [3]?
**A.** 85 nM

**Q.** What about the IC50 [1] of the same molecule?
**A.** > 100000 nM

**Q.** For `CCCCCCNC(=O)Oc1cccc(-c2ccc(C(C)C(=O)O)cc2C(F)(F)F)c1` (racemic), which IC50 [2] is on record?
**A.** 10 nM

**Q.** And the IC50 [3]?
**A.** 5 nM

**Q.** What about the IC50 [1] of the same molecule?
**A.** 200 nM

**Q.** For `CC(C)NC(=O)Oc1cccc(-c2ccc(C(C)C(=O)O)cc2F)c1` (racemic), which IC50 [2] is on record?
**A.** 3900 nM

**Q.** And the IC50 [3]?
**A.** > 100000 nM

**Q.** What about the IC50 [1] of the same molecule?
**A.** > 100000 nM

From ChEMBL document CHEMBL3774360, “Potent multitarget FAAH-COX inhibitors: Design and structure-activity relationship studies” (Eur J Med Chem, 2016)
